Test results taken from patent US20100280098A1, “RECEPTOR TARGETED OLIGONUCLEOTIDES” (priority 2007, published 2010).

Legend:
Assay type in all cases: cell-based
[1] = tested on: A375SM-Luc705-B cells; test: Luciferase splice-correction assay with peptide-oligonucleotide conjugates; conditions: for luciferase expression: dose-response and mismatch control studies, luciferase after 48 h
Method: Cell Lines and Plasmids: A375SM melanoma cells were obtained from Dr. J. Bear (University of North Carolina, Chapel Hill, N.C., United States of America), and were cultured in Dulbecco's minimum essential medium (DMEM; Invitrogen, Carlsbad, Calif., United States of America) supplemented with L-glutamine and 10% fetal bovine serum (FBS). Plasmid pLuc/705, containing an aberrant intron inserted into the firefly luciferase coding sequence, was obtained from Dr. R. Kole (University of North Carolina, Chapel Hill, N.C., United States of America). See Kang et al. (1998) Biochemistry, 37, 6235-6239. Stable transfectants were obtained by cotransfecting A375SM cells with one part of hygromycin resistant plasmid pcDNA3.1(+)/hygro (Invitrogen, Carlsbad, Calif., United States of America) and ten parts of pLuc/705 using LIPOFECTAMINE™ 2000 (Invitrogen, Carlsbad, Calif., United States of America) as per manufacturer's instructions. Selection was carried out in DMEM containing 200 μg/mL hygromycin and 10% FBS. The resulting pool of hygromycin resistant cells was referred to as A375SM-Luc705-B.
Oligonucleotide treatment and luciferase assay: A375SM-Luc705-B cells were plated on 12 well plates (at 1.0 or 1.5×10^5 cells per well in various experiments) in DMEM supplemented with 10% FBS. The following day, medium was changed to reduced serum OPTI-MEM I (Invitrogen, Carlsbad, Calif., United States of America). […] Four hours after treatment, 1% FBS was added to each well. Twenty four hours after oligonucleotide treatment, medium was replaced with DMEM containing 1% FBS, and at various times thereafter cell lysates were collected for luciferase assay.
Cells were usually harvested 48 hours after oligonucleotide treatment, or at times indicated in the figures, and activity determined using a Luciferase assay kit (Promega, Madison, Wis., United States of America). Measurements were performed on a Monolight 2010 instrument (Analytical Luminescence Laboratory, San Diego, Calif., United States of America).

[2] = tested on: A375SM-Luc705-B cells; test: Luciferase splice-correction assay with albumin conjugates
Method: Oligonucleotide Treatment of Cells and Luciferase Assay: A375SM-Luc705-B cells were seeded onto 12 well plates at 1×10^5 cells per well in medium containing 10% FBS. […] After 4 h of treatment, FBS was added to each well to 1%. After 24 h, cells were washed with DMEM medium containing 10% FBS and incubated in DMEM supplemented with 1% FBS for 48 h prior to harvest.

[3] = tested on: A375SM-Luc705-B cells; test: Total cellular accumulation of albumin conjugates (fluorimeter); conditions: nontoxic concentrations, 30 min prior to 100 nM conjugate, 4 h
Method: Cellular Uptake and Confocal Microscopy: Cells were seeded onto either 12 well plates at 1×10^5 cells per well for cellular uptake measurements or in 12 well glass-bottom plates at 2×10^4 cells per well for live cell analysis by confocal microscopy. […], the cells were either lysed for measurement of Tamra fluorescence using a Nanodrop microfluorimeter (Nanodrop Technologies, Wilmington, Deleware, United States of America) or washed with DMEM containing 10% FBS and then placed in DMEM without phenol red, supplemented with 1% FBS, for confocal microscopy analysis. Co-localization of Tamra-labeled oligonucleotides with Alexa 488 labeled Transferrin or Dextran (Molecular Probes, Beaverton, Oreg., United States of America) in live cell was also examined by confocal microscopy. An Olympus confocal microscope with a 60× objective lens was used, and the data were processed using Fluoview software (Olympus, Center Valley, Pa., United States of America) as described in Example 1.

[4] = tested on: A375SM-Luc705-B cells; test: Subcellular distribution and co-localization by confocal fluorescence microscopy (peptide conjugate); conditions: data not shown
Description: (§1) Cell Uptake, Confocal Fluorescence Microscopy, and Flow Cytometry: Total cellular uptake of Tamra-labeled oligonucleotides was monitored using a Nanodrop microfluorimeter (Nanodrop Technologies, Wilmington, Del., United States of America). After treatment with oligonucleotides the cells were lysed in a mild non-ionic detergent buffer and the Tamra fluorescence (emission 583 nm) was quantitated based on a linear standard curve of unconjugated Tamra in buffer. Intracellular distribution of Tamra-labeled oligonucleotides was examined using an Olympus Confocal FV300 fluorescent microscope (Olympus America Inc., Center Valley, Pa., United States of America) with 60X-oil immersion objective, as previously described. See Astriab-Fisher et al. (2004) Biochem. Pharmacol., 68, 403-407. Expression levels of αvβ3 were monitored by immunostaining with an anti-human-αvβ3 monoclonal (Chemicon, Temecula, Calif., United States of America) followed by an Alexa 488 rabbit antimouse secondary antibody, with analysis by flow cytometry using a DakoCytomation (Glostrop, Denmark) machine.

[5] = tested on: A375SM-Luc705-B cells; test: Total cellular uptake of Tamra-labeled oligonucleotides (microfluorimeter); conditions: for cell viability: 1-10 mM β-cyclodextrin, 0.2-20 μM cytochalasin D; for effect on uptake of the RGD-oligonucleotide conjugate: inhibitor 15 min before 100 nM RGD-623-Tamra, uptake after 4 h
Description: as §1

Molecule: 5′-GTAATTATTTATAATCGTCC-Tamra-3′ [5MM623-Tamra]
- luciferase expression [1]: failed to produce an increase in luciferase expression

Molecule: 5′-GTTATTCTTTAGAATGGTGC-3′ (antisense GTTATTCTTTAGAATGGTGC; all 2'-O-methyl, all phosphorothioate, T or U not given here; further chemistry not fully specified) [compound 623]
- influence of the Tamra fluorophore on the action of 623 ([1]; RGD conjugate or lipofection, concentrations up to 75 nM): did not affect the action of 623
- influence of the Tamra fluorophore on the action of 623 ([1]; concentrations above 100 nM): slight augmentation of effect by Tamra
- luciferase activity ([2]; 25-200 nM, 72 h): did not cause a significant increase in luciferase activity

Molecule: CC(C)[C@@H]1NC(=O)[C@@H](Cc2ccccc2)NC(=O)[C@H](CC(=O)O)NC(=O)CNC(=O)[C@H](CCCN=C(N)N)NC1=O [RGDfV]
- inhibition of the effect of RGD-623-Tamra on luciferase expression ([1]; 0.1-100 μM peptide 30 min prior to 200 nM conjugate, 48 h): progressive inhibition
- toxicity of the blocking peptide ([2]; at the concentrations used): does not cause cell detachment or other obvious toxicity
- effect on the ability of the RPA-623 conjugate to activate luciferase ([2]; excess peptide (0.1-10 μM) 30 min prior to 100 nM conjugate, 48 h): completely blocks
- effect on cellular accumulation of RPA-623-Tamra [3]: inhibited
- effect of co-incubation on cell associated fluorescence of RGD-623-Tamra conjugate [4]: substantially reduced total cell associated fluorescence
- effect of co-incubation on the increased uptake of the RGD-conjugate ([5]; excess peptide): could be blocked

Molecule: C=C1[C@@H](C)[C@H]2[C@H](Cc3ccccc3)NC(=O)[C@]23[C@H](OC(C)=O)/C=C/[C@@](C)(O)C(=O)[C@@H](C)C/C=C/[C@H]3[C@@H]1O [cytochalasin D]
- effect on cellular accumulation of RPA-623-Tamra [3]: inhibited
- cell viability [5]: No loss of cell viability was detected
- cell morphology ([5]; highest concentration): caused some cell rounding
- effect on uptake of the RGD-oligonucleotide conjugate [5]: block the uptake

Molecule: OC[C@H]1O[C@@H]2O[C@H]3[C@H](O)[C@@H](O)[C@@H](O[C@H]4[C@H](O)[C@@H](O)[C@@H](O[C@H]5[C@H](O)[C@@H](O)[C@@H](O[C@H]6[C@H](O)[C@@H](O)[C@@H](O[C@H]7[C@H](O)[C@@H](O)[C@@H](O[C@H]8[C@H](O)[C@@H](O)[C@@H](O[C@H]1[C@H](O)[C@H]2O)O[C@@H]8CO)O[C@@H]7CO)O[C@@H]6CO)O[C@@H]5CO)O[C@@H]4CO)O[C@@H]3CO [β-cyclodextrin]
- effect on cellular accumulation of RPA-623-Tamra [3]: inhibited
- cell viability [5]: No loss of cell viability was detected
- effect on uptake of the RGD-oligonucleotide conjugate [5]: block the uptake

Molecule: Bivalent-RGD-Mal-S—(CH2)6-5MM623-Tamra
- luciferase expression [1]: failed to produce an increase in luciferase expression
